Earlier results on four compounds are cited in patent publication EP0919231A1, “Injectable parasiticide composition and process for the preparation” (Biogenesis, S.A., priority 1997, dated 1999).

The conditions of series [1]: bovines; for detection of parent drug in plasma: after administering albendazole or phenbendazole, found in the gastrointestinal lumen; for detected in plasma, time postreatment: metabolite after administering albendazole or phenbendazole respectively.
The test system of the next series is Haemonchus contortus. To be noted: strain resistant to benzimidazoles; intravenous compared with oral administration.
For series [2], the system named is Trichostrongylus colubriformis. Conditions: strain resistant to benzimidazoles; intravenous compared with oral administration.

For the compound `CCCSc1ccc2nc(NC(=O)OC)[nH]c2c1` [albendazole], the “detection of parent drug in plasma” value in series [1] is listed as “not detected”.

For the compound `COC(=O)Nc1nc2ccc([S+]([O-])c3ccccc3)cc2[nH]1` (stereo not drawn) [oxphendazole, methyl ester of [(5-phenyl-sulphinyl)-1H-benzimidazol-2-il] carbamic acid], the “effectiveness intravenous versus oral” value (with Haemonchus contortus; in series [2]) was “more effective” in each case. In series [1], the “detected in plasma, time postreatment” value is not above 36 h.

For the compound `COC(=O)Nc1nc2ccc(Sc3ccccc3)cc2[nH]1` [phenbendazole], the “detection of parent drug in plasma” value in series [1] is recorded as “not detected”.

As for `CCC[S+]([O-])c1ccc2[nH]c(NC(=O)OC)nc2c1` (stereo not drawn) [ricobendazole, methyl ester of [(5-propyl-sulphinyl)-1H-benzimidazol-2-il] carbamic acid], in series [1], the “detected in plasma, time postreatment” value is not above 36 h.
